Measurements: patent publication US20060258617A1, “DRUG DELIVERY TO THE BACK OF THE EYE” (Allergan, Inc., priority 2004, published 2006)

Assay: Osmolality of cyclodextrins as a function of concentration in pure water
Assay type: physicochemical
Conditions: ambient room temperature, various concentrations (FIG. 5)
Method: The osmolality of four cyclodextrins was determined as a function of concentration in pure water by the following procedure. Various amounts of cyclodextrins were dissolved in water at ambient room temperature.

With “sulfobutylether-β-cyclodextrin [NaSBECD]” the osmolality was “significantly higher osmolality than the other β-cyclodextrins tested”.
